From publication PMC9518264, “Design and synthesis of novel quinazolinone-based derivatives as EGFR inhibitors with antitumor activity” (Journal of Enzyme Inhibition and Medicinal Chemistry, 2022)

Legend:
HL-60(TB) = assay: cells; type: cell-based; conditions: Homo sapiens; HL-60(TB); 10 μM; read-out: growth inhibition % (GI%)
MOLT-4 = assay: cells; type: cell-based; conditions: Homo sapiens; MOLT-4; 10 μM; read-out: growth inhibition % (GI%)
RPMI-8226 = assay: cells; type: cell-based; conditions: Homo sapiens; RPMI-8226; 10 μM; read-out: growth inhibition % (GI%)
SR = assay: cells; type: cell-based; conditions: Homo sapiens, 10 μM, read-out: growth inhibition % (GI%)
A549/ATCC = assay: cells; type: cell-based; conditions: Homo sapiens; A549/ATCC; 10 μM; read-out: growth inhibition % (GI%)
EKVX = assay: cells; type: cell-based; conditions: Homo sapiens, 10 μM, read-out: growth inhibition % (GI%)
HOP-62 = assay: cells; type: cell-based; conditions: Homo sapiens; HOP-62; 10 μM; read-out: growth inhibition % (GI%)
HOP-92 = assay: cells; type: cell-based; conditions: Homo sapiens; HOP-92; 10 μM; read-out: growth inhibition % (GI%)
NCI-H226 = assay: cells; type: cell-based; conditions: Homo sapiens; NCI-H226; 10 μM; read-out: growth inhibition % (GI%)
NCI-H322M = assay: cells; type: cell-based; conditions: Homo sapiens, 10 μM, read-out: growth inhibition % (GI%)
NCI-H460 = assay: cells; type: cell-based; conditions: Homo sapiens; NCI-H460; 10 μM; read-out: growth inhibition % (GI%)
NCI-H522 = assay: cells; type: cell-based; conditions: Homo sapiens; NCI-H522; 10 μM; read-out: growth inhibition % (GI%)
COLO-205 = assay: cells; type: cell-based; conditions: Homo sapiens; COLO-205; 10 μM; read-out: growth inhibition % (GI%)
HCC-2998 = assay: cells; type: cell-based; conditions: Homo sapiens; HCC-2998; 10 μM; read-out: growth inhibition % (GI%)
HCT-116 = assay: cells; type: cell-based; conditions: Homo sapiens; HCT-116; 10 μM; read-out: growth inhibition % (GI%)
HCT-15 = assay: cells; type: cell-based; conditions: Homo sapiens; HCT-15; 10 μM; read-out: growth inhibition % (GI%)
HT29 = assay: cells; type: cell-based; conditions: Homo sapiens, HT-29; HT29; 10 μM; read-out: growth inhibition % (GI%)
KM12 = assay: cells; type: cell-based; conditions: Homo sapiens; KM12; 10 μM; read-out: growth inhibition % (GI%)
SF-539 = assay: cells; type: cell-based; conditions: Homo sapiens; SF-539; 10 μM; read-out: growth inhibition % (GI%)
SNB-19 = assay: cells; type: cell-based; conditions: Homo sapiens; SNB-19; 10 μM; read-out: growth inhibition % (GI%)
SNB-75 = assay: cells; type: cell-based; conditions: Homo sapiens; SNB-75; 10 μM; read-out: growth inhibition % (GI%)
U251 = assay: cells; type: cell-based; conditions: Homo sapiens, U-251; U251; 10 μM; read-out: growth inhibition % (GI%)
LOX IMIV = assay: cells; type: cell-based; conditions: Homo sapiens, 60 cell; LOX IMIV; 10 μM; read-out: growth inhibition % (GI%)
MDA-MB-435 = assay: cells; type: cell-based; conditions: Homo sapiens; MDA-MB-435; 10 μM; read-out: growth inhibition % (GI%)
SK-MEL-2 = assay: cells; type: cell-based; conditions: Homo sapiens; SK-MEL-2; 10 μM; read-out: growth inhibition % (GI%)
SK-MEL-28 = assay: cells; type: cell-based; conditions: Homo sapiens; SK-MEL-28; 10 μM; read-out: growth inhibition % (GI%)
UACC-257 = assay: cells; type: cell-based; conditions: Homo sapiens; UACC-257; 10 μM; read-out: growth inhibition % (GI%)
UACC-62 = assay: cells; type: cell-based; conditions: Homo sapiens; UACC-62; 10 μM; read-out: growth inhibition % (GI%)
IGROV1 = assay: cells; type: cell-based; conditions: Homo sapiens, IGROV-1; IGROV1; 10 μM; read-out: growth inhibition % (GI%)
OVCAR-4 = assay: cells; type: cell-based; conditions: Homo sapiens; OVCAR-4; 10 μM; read-out: growth inhibition % (GI%)
OVCAR-5 = assay: cells; type: cell-based; conditions: Homo sapiens; OVCAR-5; 10 μM; read-out: growth inhibition % (GI%)
NCI/ADR-RES = assay: cells; type: cell-based; conditions: Homo sapiens, 10 μM, read-out: growth inhibition % (GI%)
SK-OV-3 = assay: cells; type: cell-based; conditions: Homo sapiens; SK-OV-3; 10 μM; read-out: growth inhibition % (GI%)
786-0 = assay: cells; type: cell-based; conditions: Homo sapiens; 786-0; 10 μM; read-out: growth inhibition % (GI%)
A498 = assay: cells; type: cell-based; conditions: Homo sapiens; A498; 10 μM; read-out: growth inhibition % (GI%)
TK-10 = assay: cells; type: cell-based; conditions: Homo sapiens; TK-10; 10 μM; read-out: growth inhibition % (GI%)
PC-3 = assay: cells; type: cell-based; conditions: Homo sapiens; PC-3; 10 μM; read-out: growth inhibition % (GI%)
DU-145 = assay: cells; type: cell-based; conditions: Homo sapiens; DU-145; 10 μM; read-out: growth inhibition % (GI%)
MCF7 = assay: cells; type: cell-based; conditions: Homo sapiens; MCF7; 10 μM; read-out: growth inhibition % (GI%)
MDA-MB-231/ATCC = assay: NCI 60 cell line antiproliferative screening (SRB), Breast cancer; type: cell-based; conditions: Homo sapiens, MDA-MB-231, read-out: growth inhibition % (GI%)
HS 578T = assay: cells; type: cell-based; conditions: Homo sapiens; HS 578T; 10 μM; read-out: growth inhibition % (GI%)
BT-549 = assay: cells; type: cell-based; conditions: Homo sapiens; BT-549; 10 μM; read-out: growth inhibition % (GI%)
T-47D = assay: cells; type: cell-based; conditions: Homo sapiens, T47D; T-47D; 10 μM; read-out: growth inhibition % (GI%)
[1] = test system: panel of 60 tumour cell lines; assay: NCI 60 cell line antiproliferative screening (SRB), whole panel or subpanels (means, ranges, words); type: cell-based, human; conditions: for antiproliferative activity against all tested cell lines: 10 μM single dose; for inhibition at 10 µM: Homo sapiens, 60 cell, mean over the cell line panel, read-out: Mean growth inhibition % (mean GI%)
MDA-MB-468 = assay: NCI 60 cell line antiproliferative screening (SRB), Breast cancer; conditions: Homo sapiens, MDA-MB-468, read-out: growth inhibition % (GI%)
OVCAR-3 = assay: NCI 60 cell line antiproliferative screening (SRB), Ovarian cancer; conditions: Homo sapiens, OVCAR-3, read-out: growth inhibition % (GI%)

In the case of `O=C(CSc1nc2ccccc2c(=O)n1-c1ccc(Cl)cc1)NN=Cc1ccc(Oc2ccc(Br)cc2)cc1` [6e, N'-(4–(4-bromophenoxy)benzylidene)-2-((3–(4-chlorophenyl)-4-oxo-3,4-dihydroquinazolin-2-yl)thio)acetohydrazide], the inhibition at 10 µM (HL-60(TB)) is reported as less than 15%, the inhibition at 10 µM (MOLT-4) is reported as less than 15% and the inhibition at 10 µM (RPMI-8226) is reported as less than 15%. The inhibition at 10 µM (SR) was less than 15%, the inhibition at 10 µM (A549/ATCC) was less than 15% and the inhibition at 10 µM (EKVX) was less than 15%. The inhibition at 10 µM (HOP-62) was less than 15%, the inhibition at 10 µM (HOP-92) was less than 15% and the inhibition at 10 µM (NCI-H226) was less than 15%. The inhibition at 10 µM (NCI-H322M) was less than 15%, the inhibition at 10 µM (NCI-H460) was less than 15% and the inhibition at 10 µM (NCI-H522) was 13.4%. It also gave an inhibition at 10 µM (COLO-205) of less than 15%, an inhibition at 10 µM (HCC-2998) of less than 15% and an inhibition at 10 µM (HCT-116) of less than 15%. It also gave an inhibition at 10 µM (HCT-15) of less than 15%, an inhibition at 10 µM (HT29) of less than 15% and an inhibition at 10 µM (KM12) of less than 15%. For the same compound, the inhibition at 10 µM (SF-539) was less than 15%, the inhibition at 10 µM (SNB-19) was less than 15% and the inhibition at 10 µM (SNB-75) was less than 15%. The inhibition at 10 µM (U251) was less than 15%, the inhibition at 10 µM (LOX IMIV) was less than 15% and the inhibition at 10 µM (MDA-MB-435) was less than 15%. It also gave an inhibition at 10 µM (SK-MEL-2) of less than 15%, an inhibition at 10 µM (SK-MEL-28) of less than 15% and an inhibition at 10 µM (UACC-257) of less than 15%. It also gave an inhibition at 10 µM (UACC-62) of less than 15%, an inhibition at 10 µM (IGROV1) of less than 15% and an inhibition at 10 µM (OVCAR-4) of less than 15%. The inhibition at 10 µM (OVCAR-5) was less than 15%, the inhibition at 10 µM (NCI/ADR-RES) was less than 15% and the inhibition at 10 µM (SK-OV-3) was less than 15%. The inhibition at 10 µM (786-0) was less than 15%, the inhibition at 10 µM (A498) was 15.7% and the inhibition at 10 µM (TK-10) was less than 15%. For the same compound, the inhibition at 10 µM (PC-3) was less than 15%, the inhibition at 10 µM (DU-145) was less than 15% and the inhibition at 10 µM (MCF7) was less than 15%. The inhibition at 10 µM (MDA-MB-231/ATCC) was less than 15%, the inhibition at 10 µM (HS 578T) was less than 15% and the inhibition at 10 µM (BT-549) was less than 15%. The inhibition at 10 µM (T-47D) was less than 15%, the “antiproliferative activity against all tested cell lines” value [1] was “abolishing the antiproliferative activity” and the inhibition at 10 µM [1] was less than 0%. For the same compound, the inhibition at 10 µM (MDA-MB-468) was less than 15% and the inhibition at 10 µM (OVCAR-3) was less than 15%.

In the case of `CN1CCN(c2ccc(C=NNC(=O)CSc3nc4ccccc4c(=O)n3-c3ccc(Cl)cc3)cc2)CC1` [6l, 2-((3–(4-chlorophenyl)-4-oxo-3,4-dihydroquinazolin-2-yl)thio)-N'-(4–(4-methylpiperazin-1-yl)benzylidene)acetohydrazide], the inhibition at 10 µM (HL-60(TB)) is reported as less than 15%, the inhibition at 10 µM (MOLT-4) is reported as less than 15% and the inhibition at 10 µM (RPMI-8226) is reported as less than 15%. For the same compound, the inhibition at 10 µM (SR) was less than 15%, the inhibition at 10 µM (A549/ATCC) was less than 15% and the inhibition at 10 µM (EKVX) was less than 15%. It also gave an inhibition at 10 µM (HOP-62) of less than 15%, an inhibition at 10 µM (HOP-92) of less than 15% and an inhibition at 10 µM (NCI-H226) of less than 15%. For the same compound, the inhibition at 10 µM (NCI-H322M) was less than 15%, the inhibition at 10 µM (NCI-H460) was less than 15% and the inhibition at 10 µM (NCI-H522) was less than 15%. The inhibition at 10 µM (COLO-205) was less than 15%, the inhibition at 10 µM (HCC-2998) was less than 15% and the inhibition at 10 µM (HCT-116) was less than 15%. It also gave an inhibition at 10 µM (HCT-15) of less than 15%, an inhibition at 10 µM (HT29) of less than 15% and an inhibition at 10 µM (KM12) of less than 15%. It also gave an inhibition at 10 µM (SF-539) of less than 15%, an inhibition at 10 µM (SNB-19) of less than 15% and an inhibition at 10 µM (SNB-75) of less than 15%. It also gave an inhibition at 10 µM (U251) of less than 15%, an inhibition at 10 µM (LOX IMIV) of 15.2% and an inhibition at 10 µM (MDA-MB-435) of less than 15%. The inhibition at 10 µM (SK-MEL-2) was less than 15%, the inhibition at 10 µM (SK-MEL-28) was less than 15% and the inhibition at 10 µM (UACC-257) was less than 15%. For the same compound, the inhibition at 10 µM (UACC-62) was less than 15%, the inhibition at 10 µM (IGROV1) was less than 15% and the inhibition at 10 µM (OVCAR-4) was less than 15%. For the same compound, the inhibition at 10 µM (OVCAR-5) was less than 15%, the inhibition at 10 µM (NCI/ADR-RES) was less than 15% and the inhibition at 10 µM (SK-OV-3) was less than 15%. The inhibition at 10 µM (786-0) was less than 15%, the inhibition at 10 µM (A498) was 32.6% and the inhibition at 10 µM (TK-10) was less than 15%. The inhibition at 10 µM (PC-3) was less than 15%, the inhibition at 10 µM (DU-145) was less than 15% and the inhibition at 10 µM (MCF7) was less than 15%. It also gave an inhibition at 10 µM (MDA-MB-231/ATCC) of less than 15%, an inhibition at 10 µM (HS 578T) of less than 15% and an inhibition at 10 µM (BT-549) of less than 15%. The inhibition at 10 µM (T-47D) was less than 15%, the “antiproliferative activity against all tested cell lines” value [1] was “did not show activity” and the inhibition at 10 µM [1] was less than 0%. For the same compound, the inhibition at 10 µM (MDA-MB-468) was less than 15% and the inhibition at 10 µM (OVCAR-3) was less than 15%.
